Residues, ends and D or L forms follow the SMILES beside them. *: point of attachment. Boc = CC(C)(C)OC(=O)*; Bn = c1ccc(C*)cc1
melting point [°C] | Compound
202 to 203 | c1ccc2c(c1)Cn1cccc1-c1nccn1-2
105 to 107 | CCOCC(=NO)C(C)(C)NCC(Cn1ccnc1[N+](=O)[O-])ONC(C)(C)C(CCn1ccnc1[N+](=O)[O-])=NO (centres undefined)
60 to 62 | Cn1c(=N)sc2cc(OC(F)(F)F)ccc21
203 to 205 | COc1ccc(C(=O)Nc2ccccc2)cc1NC(=S)Nc1cc(C)cc(C)c1
152 to 154 | CCC1c2ccccc2-c2ccccc21
225 | Nc1ccc(Nc2c(NCc3ccccc3)cc(C(=O)O)cc2S(=O)(=O)Nc2ccccc2N)cc1
170 to 173 | CC(C)(C)C#Cc1cc([N+](=O)[O-])ccc1C(=O)O
129 to 130 | COc1cccc(CNC(=O)c2nc(OC)c3ccccc3n2)c1
130 to 132 | OC1(CNc2c(Br)cnc3ccccc23)CCCCC1
76 to 77.5 | COC(=O)COc1ccc(NC(=O)COCc2ccccc2)cc1
248 to 250 | O=C(CC1c2ccccc2CCc2ccccc21)Nc1ccc(C(=O)O)cc1
155 to 156 | O=C(O)C=CC(=O)c1ccc(Oc2ccc(Cl)c(Cl)c2)cc1
203 to 207 | CCN(CC)CCCCNc1ncc2c(n1)NC(=O)N(c1cc(OC)cc(OC)c1)C2
47 | CCOC1=C([N+](=O)[O-])CN(C(C)C)C1=O
293 to 295 | Cc1nc2sccn2c1C1=NNC(=O)NC1
90 to 91 | CNc1nc(Cl)ncc1[N+](=O)[O-]
167 to 169 | CN(C)S(=O)(=O)c1ccccc1S(=O)(=O)NC(=O)Nc1nc(F)cc(OC(F)(F)F)n1
110 to 115 | CCCCCCCCCCCCCCOc1ccc(CC(=O)Nc2ccc(CBr)cc2)cc1
130 to 131 | CC1(C)CC(C)(C)CC(CCC(=O)O)(NC(=O)CCl)C1
174 to 175 | COC(=O)c1cccc(N)c1S
50 to 51 | COC(=O)C=C(Nc1ccc(CC(=O)OC)cc1)C(F)(F)F
168 to 170 | CCOC(=O)C(C)(C)n1c(=O)[nH]c2cccc(F)c2c1=O
165 | Cc1c(F)cccc1Cc1c(-c2ccccc2)c2cc(O)cnn2c1C(=O)N1CCN(C(=O)OC(C)(C)C)CC1
245 to 246 | Cc1cccc(COc2ccc(CC(NC(=O)c3cn4ccc(-c5ccc(Cl)cc5)cc4n3)C(=O)O)cc2)c1 (centres undefined)

melting point [°C] | Compound
80 to 85 | CC(=O)Nc1ccc(S(=O)(=O)NCc2cc3c(ccc4cnn(C[C@H](C)N)c43)o2)cc1
138 to 140 | COC(=O)C(C)NC(=O)NS(=O)(=O)C=Cc1ccccc1 (centres undefined)
140 to 142 | CCCCOc1nc2ncnn2c2c1cnc1c2cnn1CC
169 to 171 | CCCc1c(OCCCCCC(=O)c2cc(O)c(O)c(C(C)C)c2)ccc(C(=O)O)c1O
82 to 86 | CCCCOc1cc(CCS(=O)(=O)NC(=O)OCCOC)n(Cc2ccc(Cl)cc2Cl)n1
165 to 167 | CCn1ccc(Nc2cc(Br)cn(C)c2=O)n1
238 | Cc1cc(C#N)cc(C(=O)Nc2ccnc(Cl)c2)n1
126 to 128 | COP(=O)(NC1C(=O)N2C(C(=O)OCc3ccccc3)=C(C=CN(C)C)CSC12)OC (centres undefined)
250 to 251 | CN(C)S(=O)(=O)c1cccc(-c2nc(N)nc(N)n2)c1
154 to 155 | Cn1ncc(/C=C/C(=O)Nc2ccc(OCc3nnco3)cc2)c1-c1ccc(F)cc1
134 to 136 | CC(C)(C)OC(=O)NCCSCC1(C)NC(=O)NC1=O (centres undefined)
125 to 126 | Cn1c(Cl)cnc1C(OC(=O)OC(C)(C)C)c1cc(F)ccc1F (centres undefined)
255 | COc1ccccc1Cc1ccc2[nH]c3cnn(C)c3c(=O)c2c1
119 to 122 | CCOC(=O)/C=C/c1cc(OC)cc(OC)c1C#N
93 to 95 | CC(=O)Oc1c(C(C)(C)C)cc(CCCO)cc1C(C)(C)C
222 to 224 | N#Cc1cc(Br)cc2ccc(O)cc12
230 to 231 | COc1ccccc1C1(Cl)C(=O)Nc2cc(C(F)(F)F)c(Cl)cc21 (centres undefined)
164 to 165 | CN(CCOc1ccc(CC(Oc2ccc(Cl)cc2)C(=O)O)cc1)c1nc2ccccc2o1 (centres undefined)
205 | Cc1cc(C)nc(NC#N)n1
150 | CC(=O)OC1CSC(Sc2ccc(-c3ccc(C#N)cc3)cc2)C(OC(C)=O)C1OC(C)=O (centres undefined)
213 to 215 | Cc1cccc(Nc2nc(N)ncc2S(N)(=O)=O)c1
346 to 347 | N#Cc1ccc(-c2ccc(-c3nc4cc(C#N)ccc4[nH]3)cc2)nc1
101 | Cc1cc(C)n(C(=O)CCNS(=O)(=O)c2ccc(Cl)cc2)n1
128 | OC1CSC(Oc2cccnc2-c2ccoc2)C(O)C1O (centres undefined)

melting point [°C] | Compound
246 to 247 | CCOC(=O)c1cnn2c1c(O)nc1c(C)nn(C)c12
139 to 140 | CC/C(=C\c1ccc(OCCOC)cc1Oc1ncc(Cl)cc1Cl)C(=O)O
158 to 160 | O=C(O)COc1ccc(SCc2ccc(OCc3cc(Cl)ccc3Cl)cc2)c2c1CCC2
173 to 174 | COc1cccc(CC(=O)c2c(O)c3cccnc3n(-c3ccccc3)c2=O)c1
206 to 207 | CCn1ncc2c1ncc1c(=O)n(C)c3cc(C)nn3c12
112 to 114 | CC1=C(C)c2cc(Br)ccc2Oc2ccccc21
88 to 93 | CC(C)COc1ccc(N)cc1C#N
88 to 90 | COCC1(C)Oc2ccc(C#N)cc2C2OC21 (centres undefined)
112 to 115 | COc1ccc2c(c1)CCC1CCN(C)C(=O)C(CC3(C)OCCO3)=C21 (centres undefined)
88 to 92 | Cc1ccc2c(cc(CCC(=O)O)n2S(=O)(=O)c2ccccc2)n1
225 to 228 | Cn1c(=O)[nH]c(=O)n(-c2ccc(F)cc2Cl)c1=O
175 to 176 | O=C1c2ccccc2C(=O)N1CC(Br)(c1ccccc1)C(Br)Br (centres undefined)
243 to 245 | Cc1ccc(C=CC(=O)N[C@@H](Cc2ccc(OCCc3nc(-c4ccccc4)oc3C)c(Br)c2)C(=O)O)cc1
89 to 91 | O=Cc1c(-c2ccccc2Br)ccc2c1OCO2
281 to 285 | O=c1nc(-c2ccccc2F)c2ccccc2[nH]1
210 | O=C(Nc1ccc2[nH]ncc2c1)O[C@H](c1ccc(Cl)c(Cl)c1)[C@H]1CCCCN1
65 to 70 | Cc1ccccc1CCCc1c(C(C)C)nc(C(C)C)c(CO)c1-c1ccc(F)cc1
90 to 94 | CC(C)CC(NC(=O)C(Cc1ccc(OCc2ccccc2)cc1)NC(=O)OC(C)(C)C)C(=O)O (centres undefined) (Boc-Tyr(Bn)-Leu-OH; configuration not given here)
109 to 110 | CC(=O)OC1CC2=CCC3C4CCC(C(C)CCCC(C)C)C4(C)CCC3C2(C)C(OC(C)=O)C1OC(C)=O (centres undefined)
175 to 177 | COc1ccc(-n2nnc3c(-c4ccc(C(F)(F)F)cc4F)ncnc32)cc1
120 to 121 | COc1cc(COc2cccc(S(=O)(=O)c3ccc(C)nc3Nc3c(C)cc(C)cc3C)c2)cc(OC)c1
255 to 257 | N#Cc1c(C(F)(F)F)oc2cc(O)ccc2c1=O
69.5 to 70 | CCCc1cc([N+](=O)[O-])cc(C=O)c1O
99 to 100 | CS(=O)(=O)OCCc1cc(Nc2ncc3c(n2)-c2ccccc2[C@H](c2ccccc2F)C3)ccc1F

melting point [°C] | Compound
205 | COc1ccc(-c2cc(-c3cccc(Br)n3)nc(-c3cccc(Br)n3)c2)cc1
191 | Cc1nc(-c2ccc([C@H]3CN(c4nc(-c5ccncn5)cc(=O)n4C)CCO3)cc2)no1
227 to 231 | COc1cccc(C(=O)c2[nH]c3cc(Cl)ccc3c2CC(=O)O)c1
64 to 65 | C#Cc1cc2ccccc2[nH]1
249 to 250 | O=c1c(C2=Nc3ccccc3S(=O)(=O)N2)c(O)c2ccccc2n1CCCC(F)(F)F
57 to 60 | CCCCCCCCC1CNc2cc(C(=O)OC)ccc21 (racemic)
106 to 110 | COc1nc(OC)nc(SC(C(=O)O)C2CCCC2)n1 (centres undefined)
198 to 200 | NC(=NC(=O)Cn1c(Cl)ccc1Cl)NC(=O)c1ccc(Cl)cc1
127 | CC(=O)Oc1ccc(NC(=O)c2ccc(C3OCC(SC(C)C(O)(Cn4cncn4)c4ccc(F)cc4F)CO3)cc2)cc1 (centres undefined)
214 | COc1cc(C(=O)N2Cc3ccc(C(=O)NCCC(c4ccccc4)c4ccccc4)n3Cc3ccccc32)ccc1-c1ccccc1C
128 to 129 | Cc1c(OCCCCSCc2ccncc2)ccnc1CNc1cnc2ccccc2c1
242 to 244 | Cc1nc(-c2ccc3cnc(Nc4ccc(N5CCN(C)CC5)cc4)nn23)cn1C
184 | Cc1cccc(NC(=O)NCC(=O)N(c2ccccc2)c2cccc(Cl)c2)c1
124 | CC(C)OC(=O)C(C)(C)Oc1ccc(C(=O)c2ccc(O)cc2)cc1
174 to 176 | COc1ccc2cc(C=C(C)C(=O)NCCN(O)C(N)=O)ccc2c1
213 to 214 | CC(=O)Nc1c(C(=O)c2cccnc2)[nH]c2cc(Cl)ccc12
96 to 98 | COC(=O)CCCc1cc2cc(Cl)ccc2n1S(=O)(=O)c1c(C)noc1C
238 to 240 | Cc1ccc2c(c1)NC(=O)c1cccc3c1N2CC3
176 to 178 | COc1ccc(-c2cc(=Nc3c(C)cc(C)cc3C)n(C)c(=O)n2C)cc1N
80 to 84 | Cn1ncnc1COc1nc2c(-c3ccccc3)nncn2c1-c1cccc(Cl)c1
71 to 73 | Clc1cccc2c1CSCCCN2
193 to 194 | COC(C)C(=O)Nc1ccc(C2=NNC(=O)CC2C)cc1 (centres undefined)
174 to 175 | CC(C)(C)[Si](C)(C)Oc1ccc2c(c1)OC(c1ccc(O)cc1)c1c-2sc2cc(O[Si](C)(C)C(C)(C)C)ccc12 (centres undefined)

Compound | melting point [°C]
c1ccc2c(N3CCNCC3)nsc2c1 | 88 to 90
CNC(NCc1ccc(Cl)nc1)=C(C(=S)NS(C)(=O)=O)[N+](=O)[O-] | 129 to 131
CN(C)C(=O)OC1c2nccnc2C(=O)N1c1ccc2ccc(Cl)nc2n1 (centres undefined) | 270
Clc1ccc2c(c1)N=Cc1ccccc1O2 | 73 to 73.5

From a melting point compilation (Tetko et al.; mined from patent text by program, amines drawn as free bases though some values may be those of a salt)
